{"source": "patent US11939377B2", "about": "“Affinity matured CD22-specific monoclonal antibody and uses thereof” (The U.S.A., as represented by the Secretary, Department of …, priority 2018, dated 2024)", "key": {"[1]": {"tested_on": "Nalm6, Nalm6 CRISPR variant, SEM or PDX leukemia", "assay": "Nalm6 / SEM xenograft and PDX in vivo studies (IVIS luminescence)", "parameters": "species or system NSG mice"}, "[2]": {"tested_on": "CD22^lo or Nalm6 leukemia", "assay": "CAR T cell persistence and phenotype by flow cytometry in leukemia-bearing mice", "format": "in vivo, NSG mice", "experimental": "FIGS. 9A-9F: (FIGS. 9A-9B) A total of 1×10^5 tumor cells were co-cultured with 1×10^5 mock, CD22, or […] CAR and assessed for IFNγ and IL2 cytokines by ELISA from cell culture supernatants (statistics were calculated using paired t test (*, P<0.0332); FIG. 9A) or Annexin V staining was assessed over time using IncuCyte ZOOM (FIG. 9B). […] (FIG. 9C) NSG mice were injected with 1×10^6 GPF-positive CD22^neg, CD22^lo, or Nalm6 tumor cells on day 0. On day 3, 5×10^6 CD22 or CD22^V1 CAR were injected for treatment. Mice were imaged using IVIS technology and luciferin-D intraperitoneal injections. Luminescence quantification is shown on the right. […] (FIG. 9D) CD22 or CD22^V1 CART were co-incubated with tumor cells. On days 1 and 8, CAR was harvested, stained for flow cytometry, and analyzed on Fortessa flow machine. Statistics were calculated using unpaired t test (*, P<0.0332). (FIGS. 9E-9F) Mice were injected with CD22^lo or Nalm6 leukemia on day 0. […] Bone marrow cells were stained for flow cytometry and analyzed on Fortessa flow machine. Statistics were calculated using unpaired t test (****, P<0.0001; *, P<0.0332).\nFIGS. 13A-13F: (FIG. 13A) BIAcore analysis was used to evaluate association and dissociation curves of various scFvs. Note: The calculated dissociation rate constant kd (1.1×10^−6 l/s) is lower than the kd which can be measured by the BIAcore X-100 used here (1.0×10^−5 l/s). […] (FIG. 13B) CD22^V1 or CD22 CART were co-cultured with CD22^neg or CD22^lo leukemia and evaluated at 24 hours for PD1 expression through flow cytometry on a Fortessa flow machine. […] Bone marrow cells were stained for flow cytometry and analyzed on Fortessa flow machine. Statistics were calculated using unpaired t-test (** p<0.0021).\nCD22-CAR functionality and anti-leukemic efficacy were evaluated in vivo in Nalm6 xenograft or PDX models with NOD.Cg-Prkdcscid Il2rgtm1Wjl/SzJ (NSG) mice (The Jackson Laboratory and bred in-house) ages 6-10 weeks. […] On day 3, mice received CD22-CAR-transduced T cells or mock-transduced T cells intravenously at the indicated quantity. […]"}, "Nalm6 leukemia cells": {"tested_on": "Nalm6 leukemia cells", "assay": "CD22 expression on Nalm6 in NSG mice after a single dose of Bryostatin 1", "format": "in vivo", "conditions": "single dose I.P.", "experimental": "FIGS. 3A-3D: (FIG. 3A) Four cell lines (Nalm6, Kopn8, Pfieffer and Toldeo) were co-incubated with 1 ng/ml Bryostatin 1 for 24 hours and analyzed using flow cytometry one day after Bryostatin 1 exposure. Site density was analyzed using standardized Quantibrite-PE beads. (FIG. 3B) Cell lines were co-incubated with 1 ng/ml Bryostatin 1 for 24 hours, washed, and analyzed using flow cytometry at 1 and 7 days after Bryostatin 1 exposure. Fold change was calculated based on site density: (Cell line Bryostatin 1—Cell line DMSO)/Cell line DMSO. (FIG. 3C) NSG mice were injected with 1×10^6 GPF-positive Nalm6 leukemia cells on Day 0. Bryostatin 1 was administered at 0.8 μg/kg on Day 3. Mice were sacrificed 7 and 12 days after Bryostatin 1 injection and CD22 was evaluated by flow cytometry. (FIG. 3D) CD22-low relapse PDX cell line was cultured in vitro with 1 nmol/L Bryostatin 1 for 24 hours and measured for CD22 expression using CD22 antibody. […]\nFACS analysis of cell surface CAR and protein expression was performed using an LSR II Fortessa flow cytometer (BD Biosciences). CD22-CAR was detected by incubation with 22-Fc (R&D Systems), followed by incubation with human IgG-specific PE-F(ab)2 (Thermo Fisher Scientific). […] CD22 site density was determined using QuantiBrite-PE beads (BD Biosciences) using methods previously described (Jasper et al., Cytometry B Clin Cytom 80(2):83-90, 2011). […]"}}, "data": [{"molecule": "CCC/C=C/C=C/C(=O)O[C@H]1/C(=C/C(=O)OC)C[C@H]2C[C@H]([C@@H](C)O)OC(=O)C[C@H](O)C[C@@H]3C[C@H](OC(C)=O)C(C)(C)[C@](O)(C[C@@H]4C/C(=C/C(=O)OC)C[C@H](/C=C/C(C)(C)[C@]1(O)O2)O4)O3", "note": "[Bryostatin 1]", "values": [{"measurement": "durability of remission after subcurative dose of CD22 CART", "setting": "[1]; Nalm6 and SEM, 40 μg/kg once weekly for 2 weeks", "value": "improved durability of remission"}, {"measurement": "efficacy of the CD19 CAR in vivo", "setting": "[1]; SEM, 40 μg/kg once weekly for 2 weeks", "value": "did not reduce efficacy"}, {"measurement": "ability of CD22-CAR to attenuate progression of CD22^lo leukemia in vivo", "setting": "[1]; once weekly for 2 weeks after CD22 CART", "value": "did not impact"}, {"measurement": "CD22 CART in bone marrow", "setting": "[2]; 30 days, drug 40 μg/kg once weekly for 2 weeks after CART", "value": "slightly increased"}, {"measurement": "central memory and effector memory cells within CD8+ CART population, spleen", "setting": "[2]; Nalm6 pretreated with drug, seven days after CD22 CAR injection", "value": "significant cumulative enrichment"}, {"measurement": "CART activation/exhaustion markers (PD1, TIM3, LAG3)", "setting": "[2]; with Bryostatin 1 exposure", "value": "stable PD1 expression, without increase in TIM3 or LAGS"}, {"measurement": "CD22 MFI on Nalm6 in vivo", "setting": "Nalm6 leukemia cells; 1 week", "value": "increased"}, {"measurement": "CD22 expression on Nalm6 in vivo", "setting": "Nalm6 leukemia cells; 12 days post-drug administration", "value": "return to baseline expression"}]}]}
